Counter-ions that a name gives are not always drawn.
Key:
[1] = system: conjugated diene formation; test: Conjugated Diene Formation Assay (rat brain synaptosomes); type: biochemical; conditions: 100 μM (or less) of drug; active = inhibition by 50% or more
Description: The formation of conjugated dienes as assayed by Braughler, J. Neurochem., 44, 1282 (1985), Bucher, Fund. Applied Tox., 3, 222 (1983) and Tein, Arch. Biochem. Biophy., 216, 142 (1982) is a standard pharmacological laboratory procedure useful for identifying compounds which inhibit lipid peroxidation. Since lipid peroxidation is involved in the pathophysiology of central nervous system trauma, compounds which inhibit conjugated diene formation are useful in treating the conditions listed below.
44, 1282 (1985). Synaptosomal suspension (10 μl) is added to 1 ml of physiological (normal) saline containing 1% Lubrol PX (Sigma Chemical Co. St. Louis, Mo.), 100 μM hydrogen peroxide and 100 μM (or less) of the drug to be tested prepared in either absolute ethanol or water depending upon solubility. The reaction is started by the rapid addition of 200 μM ferrous ammonium sulfate prepared in argon-purged water. The sample is rapidly mixed and the change in absorbence at 232 nm is followed in a Gifford Response Spectrophotometer equipped with a rapid sampler. Due to the rapidity of the reaction, rapid addition of the iron, rapid mixing and sampling are obligatory to the accuracy of the assay. For best results absorbence readings of one/sec should be started within 5 sec following the addition of iron. The initial linear rate of absorbence change during the first 30 sec of reaction are compared with the rate of a reaction containing all reagents except synaptosomes. The difference in rates is the rate of conjugated diene formation. Rates with drug are compared to rates obtained in the absence of drug and the % inhibition is calculated. A compound that inhibits conjugated diene formation by 50% or more is considered to be "active".

arachidonic acid = test: Arachidonic Acid Antagonism Assay (AAAA), LD50 of sodium arachidonate; type: in vivo, Charles River male CF-1 mice; conditions: for arachidonic acid antagonism (activity in words): test compound IV 15 min before sodium arachidonate, LD50 outside 95% confidence interval of control
Protocol: Since these metabolites contribute to the pathological problems associated with stroke, spinal trauma and head injury, compounds which antagonize arachidonic acid are useful in treating stroke, spinal trauma and head injury.
While not necessary to determine arachidonic acid antagonism, the above assay has been modified as follows: Charles River male CF-1 mice weighing 18-22 g are treated IV with the test compound dissolved in 1.0% Tween-80 and 0.1% hydrochloric acid in distilled water, 0.2 ml total volume. Fifteen minutes later sodium arachidonate (90% pure) in physiological (normal) saline is injected into the tail vein. The LD50 is measured using the Spearman-Karber method with a log dose interval of 0.05 (N=6). Compounds which elevate the LD50 outside of the 95% confidence interval of the control LD50 are considered to be "active".

mucous secretion = test: Inhibition of mucous secretion assay of Johnson; conditions: for inhibition of mucous secretion (activity in words): induced mucous secretions; for preferred mucous inhibitors by the test results (in words): test results disclose
Description: According to this procedure compounds which inhibit or block enhancement of induced mucous secretions when tested are considered to be "active".

MDA formation = test: Malonyldialdehyde (MDA) Formation Assay (rat brain synaptosomes); type: biochemical; conditions: 10 min at 37°, pH 7.0; active = 50% or more at 200 μM or less
Protocol: Since lipid peroxidation is involved in the pathophysiology of center nervous system trauma, compounds which inhibit MDA formation are useful in treating the conditions listed below.
While not necessary to determine MDA formation, the above assays have been modified as follows: rat brain synaptosomes are prepared as described in the Example about the conjugated diene assay, except that the final wash of the synaptosomes and final suspension are in physiological (normal) saline in which the pH has been adjusted to 7.0. The synaptosomes are incubated for 10 min at 37° in physiological (normal) saline pH 7.0 (total volume=100 ul) containing; 10 ul synaptosomal suspension, 10% DMSO plus or minus drug, 150 uM Fe^+++ and 50 uM Fe++. The incubation is started by the rapid addition of iron to the otherwise complete reaction. The iron solutions are prepared fresh as ferric chloride and ferrous ammonium sulfate in argon-purged water. Following the 10 min incubation, the reaction is stopped by the addition of 500 ul ice-cold 12% trichloroacetic acid prepared in 0.5N hydrochloric acid. Water (300 ul) is then added along with 100 ul of freshly prepared thiobarbituric acid (3.3% in 0.5N sodium hydroxide) and 10 ul of 5 mM desferrioxamine. The sample is then heated in a boiling water bath for 20 minutes. The samples are cooled and centrifuged for 15 minutes at 1500×g and the absorbence of the supernatant fraction is read at 532 nm. The % inhibition of MDA formation is calculated by dividing the absorbance of sample containing drug by the absorbence of samples incubated without drug. Reaction blanks are samples incubated in the absence of iron. A compound that inhibits MDA formation by 50% or more at a concentration of 200 μM or less is considered "active".

interleukin-1 = test: Inhibition of interleukin-1 induced T cell proliferation; type: cell-based; conditions: for inhibition of interleukin 1 (activity in words): active = greater than 30% at 10^-6 M
Description: The inhibition of interleukin-1 induced T cell proliferation assay, Proc. Nat. […] Since people with arthritis make excess interleukin 1, compounds which inhibit the activity of interleukin 1 are useful in the treatment of arthritis. According to this procedure compounds which inhibit the activity of interleukin 1 greater that 30% at 10^-6 M are considered to be "active".

angiogenesis = test: Chick embryo assay of Folkman (inhibition of angiogenesis / tumor growth); type: in vivo; conditions: 50 μg/10 μl in the presence of heparin
Protocol: According to this procedure compounds which are considered to be "active" (i.e. antiangiogenic) give an avascular zone of 4 mm or greater in some embryos when tested at 50 μg/10 μl in the presence of 50 μg/10μ of heparin.

| Compound | inhibition of conjugated diene formation (activity in words) [1] | arachidonic acid antagonism (activity in words) (arachidonic acid) | inhibition of mucous secretion (activity in words) (mucous secretion) | inhibition of MDA formation (activity in words) (MDA formation) | inhibition of interleukin 1 (activity in words) (interleukin-1) | further results |
| --- | --- | --- | --- | --- | --- | --- |
| C[C@]12CCC(=O)C=C1CC[C@@H]1C2=CC[C@@]2(C)[C@H]1CC[C@]2(O)C(=O)CN1CCC(O)(c2ccc(C(F)(F)F)cc2)CC1 [Example 5, 17α-Hydroxy-21-[4-hydroxy-4-(4-trifluoromethyl)-phenyl-1-piperidinyl]-pregna-4,9(11)-diene-3,20-dione] | demonstrate such activity | – | – | – | – | – |
| CCN(CC)c1cc(N2CCN(CC(=O)[C@@]3(O)CC[C@H]4[C@@H]5CCC6=CC(=O)CC[C@]6(C)C5=CC[C@@]43C)CC2)nc(N)n1 [Example 4, 21-[4-[2-Amino-6-(diethylamino)-4-pyrimidinyl]-1-piperazinyl]-17α-hydroxypregna-4,9(11)-diene-3,20-dione] | demonstrate such activity | demonstrate arachidonic acid antagonism | demonstrate such activity | – | – | – |
| CS(=O)(=O)O.CS(=O)(=O)O.C[C@@H]1C[C@H]2[C@@H]3CCC4=CC(=O)C=C[C@]4(C)C3=CC[C@]2(C)[C@H]1C(=O)CN1CCN(c2cc(N3CCCC3)nc(N3CCCC3)n2)CC1 [Example 83, 16α-Methyl-21-[4-(2,6-bis(1-pyrrolidinyl)-4-pyrimidinyl]-1-piperazinyl]pregna-1,4,9(11)-triene-3,20-dione dimethane-sulfonate] | demonstrate such activity | – | demonstrate such activity | demonstrate such activity | demonstrate inhibition of interleukin 1 | preferred mucous inhibitors by the test results (in words) (mucous secretion): preferred mucous inhibitors; inhibition of angiogenesis (activity in words) (angiogenesis): demonstrate inhibition of angiogenesis |
| C[C@@H]1C[C@H]2[C@@H]3CCC4=CC(=O)C=C[C@]4(C)[C@H]3[C@H](O)C[C@]2(C)[C@H]1C(=O)CN1CCN(c2cc(N3CCCC3)nc(N3CCCC3)n2)CC1 [Example 84, 11α-hydroxy-16α-methyl-21-[4-[2,6-bis(1-pyrrolidinyl)-4-pyrimidinyl]-1-piperazinyl]pregna-1,4-diene 3,20-dione] | demonstrate such activity | – | – | – | demonstrate inhibition of interleukin 1 | – |
| C[C@@H]1C[C@H]2[C@@H]3CCC4=CC(=O)C=C[C@]4(C)C3=CC[C@]2(C)[C@H]1C(=O)CN1CCN(c2cc(N3CCOCC3)nc(N3CCOCC3)n2)CC1 [Example 86, 16α-methyl-21-[4-[2,6-bis(4-morpholino)-4-pyrimidinyl]-1-piperazinyl]-pregna-1,4,9(11)-triene-3,20-dione] | demonstrate such activity | – | – | demonstrate such activity | demonstrate inhibition of interleukin 1 | % Inhibition at 10^-6 M (interleukin-1; interleukin 1, 10^-6 M): 84%; inhibition of angiogenesis (activity in words) (angiogenesis): demonstrate inhibition of angiogenesis |
| CC(CN1CCN(c2cc(N3CCCC3)nc(N3CCCC3)n2)CC1)[C@H]1CC[C@H]2[C@@H]3CCC4=CC(=O)C=C[C@]4(C)[C@H]3CC[C@]12C.CS(=O)(=O)O.O (some centres unmarked) [Example 112, 21-[4-(2,6-Bis(1-pyrrolidinyl)-4-pyrimidinyl)-1-piperazinyl]-20-methylpregna-1,4-dien-3-one methanesulfonate, hydrate] | demonstrate such activity | – | – | – | – | – |
| CS(=O)(=O)O.C[C@]12CCC(=O)C=C1CC[C@@H]1C2=CC[C@@]2(C)[C@H]1CC[C@]2(O)C(=O)CN1CCN(c2ccccn2)CC1 [Example 2, 17α-Hydroxy-21-[4-(2-pyridinyl)-1-piperazinyl]pregna-4,9(11)-diene-3,20-dione methanesulfonate] | demonstrate such activity | demonstrate arachidonic acid antagonism | demonstrate such activity | – | – | preferred mucous inhibitors by the test results (in words) (mucous secretion): preferred mucous inhibitors; % of Embryos with 4 mm or Greater Avascular Zone (angiogenesis): 85% |
| C[C@]12CCC(=O)C=C1CC[C@@H]1C2=CC[C@@]2(C)[C@H]1CC[C@]2(O)C(=O)CN1CCN(c2cc(N3CCOCC3)nc(N3CCOCC3)n2)CC1 [Example 105, 21-[4-(2,6-Bis(4-morpholino)-4-pyrimidinyl)-1-piperazinyl]-17α-hydroxypregna-4,9(11)-diene-3,20-dione dihydrochloride, hydrate] | – | – | demonstrate such activity | – | demonstrate inhibition of interleukin 1 | preferred mucous inhibitors by the test results (in words) (mucous secretion): preferred mucous inhibitors; inhibition of angiogenesis (activity in words) (angiogenesis): demonstrate inhibition of angiogenesis |
| C[C@H]1C[C@@H]2C(=CC[C@@]3(C)[C@H]2CC[C@]3(O)C(=O)CN2CCN(c3cc(N4CCCC4)nc(N4CCCC4)n3)CC2)[C@@]2(C)C=CC(=O)C=C12 [Example 47, 17α-hydroxy-6α-methyl-21-[4-[2,6-bis(1-pyrrolidinyl)-4-pyrimidinyl]-1-piperazinyl]pregna-1,4,9(11)-triene-3,20-dione (E)-2-butenodioate salt] | demonstrate such activity | demonstrate arachidonic acid antagonism | – | demonstrate such activity | demonstrate inhibition of interleukin 1 | – |
| C[C@]12CCC(=O)C=C1CC[C@@H]1C2=CC[C@@]2(C)[C@H]1CC[C@]2(O)C(=O)CN1CCN(c2cccc(N3CCCC3)n2)CC1 [Example 62, 17α-hydroxy-21-[4-[6-(1-pyrrolidinyl)-2-pyridinyl]-1-piperazinyl] pregna-4,9(11)-diene-3,20-dione (E)-2-butenedioate (1:1) salt] | – | demonstrate arachidonic acid antagonism | – | demonstrate such activity | – | % of Control LD50 100 mg/kg (arachidonic acid; 100 mg/kg, test compound IV): 138% |
| C[C@]12C=CC(=O)C=C1CC[C@@H]1C2=CC[C@]2(C)[C@@H](C(=O)CN3CCN(c4cc(N5CCCC5)nc(N5CCCC5)n4)CC3)CC[C@@H]12.Cl.Cl [Example 111, 21-[4-(2,6-Bis(1-pyrrolidinyl)-4-pyrimidinyl)-1-piperazinyl]pregna-1,4,9(11)-triene-3,20-dione dihydrochloride] | demonstrate such activity | – | – | – | – | – |

Reference: patent US5506354A, “Imidazolylpiperazinyl steroids” (The Upjohn Company, priority 1992, dated 1996)
